Data as given in the supplement of paper PMC11451515.

System: NOMO1
Assay: cell viability relative to DMSO control; higher = less cytotoxic
Details: 48 h
Outline: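 Viability, reported as a per-plate percentage of DMSO wells with cell-free wells as background, came from CellTiter-Glo One luminescence. Reading took place after 48 h at 37°C. Before that, NOMO1 or SEM (500 cells/well) or P12-Ichikawa (1000 cells/well) leukemia cells, adapted for at least four passages in each medium, were seeded in 1536-well plates (5 μl) and pin-dosed with library compounds in DMSO, 47 μM to 0.79 nM over 11 threefold points.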

[1] = HPLM + 10% dialyzed FBS, 0.000781 µM
[2] = HPLM + 10% dialyzed FBS, 0.00234 µM
[3] = HPLM + 10% dialyzed FBS, 0.00702 µM
[4] = HPLM + 10% dialyzed FBS, 0.0211 µM
[5] = HPLM + 10% dialyzed FBS, 0.0632 µM
[6] = HPLM + 10% dialyzed FBS, 0.19 µM
[7] = HPLM + 10% dialyzed FBS, 0.569 µM
[8] = HPLM + 10% dialyzed FBS, 1.71 µM
[9] = HPLM + 10% dialyzed FBS, 5.12 µM
[10] = HPLM + 10% dialyzed FBS, 15.4 µM
[11] = HPLM + 10% dialyzed FBS, 46.1 µM
[12] = RPMI 5 mM glucose + 10% FBS, 0.000781 µM
[13] = RPMI 5 mM glucose + 10% FBS, 0.00234 µM
[14] = RPMI 5 mM glucose + 10% FBS, 0.00702 µM
[15] = RPMI 5 mM glucose + 10% FBS, 0.0211 µM
[16] = RPMI 5 mM glucose + 10% FBS, 0.0632 µM
[17] = RPMI 5 mM glucose + 10% FBS, 0.19 µM
[18] = RPMI 5 mM glucose + 10% FBS, 0.569 µM
[19] = RPMI 5 mM glucose + 10% FBS, 1.71 µM
[20] = RPMI 5 mM glucose + 10% FBS, 5.12 µM
[21] = RPMI 5 mM glucose + 10% FBS, 15.4 µM
[22] = RPMI 5 mM glucose + 10% FBS, 46.1 µM
[23] = RPMI 5 mM glucose + 10% dialyzed FBS, 0.000781 µM
[24] = RPMI 5 mM glucose + 10% dialyzed FBS, 0.00234 µM
[25] = RPMI 5 mM glucose + 10% dialyzed FBS, 0.00702 µM
[26] = RPMI 5 mM glucose + 10% dialyzed FBS, 0.0211 µM
[27] = RPMI 5 mM glucose + 10% dialyzed FBS, 0.0632 µM
[28] = RPMI 5 mM glucose + 10% dialyzed FBS, 0.19 µM
[29] = RPMI 5 mM glucose + 10% dialyzed FBS, 0.569 µM
[30] = RPMI 5 mM glucose + 10% dialyzed FBS, 1.71 µM
[31] = RPMI 5 mM glucose + 10% dialyzed FBS, 5.12 µM
[32] = RPMI 5 mM glucose + 10% dialyzed FBS, 15.4 µM
[33] = RPMI 5 mM glucose + 10% dialyzed FBS, 46.1 µM

SMILES	cell viability [1]	cell viability [2]	cell viability [3]	cell viability [4]	cell viability [5]	cell viability [6]	cell viability [7]	cell viability [8]	cell viability [9]	cell viability [10]	cell viability [11]	cell viability [12]	cell viability [13]	cell viability [14]	cell viability [15]	cell viability [16]	cell viability [17]	cell viability [18]	cell viability [19]	cell viability [20]	cell viability [21]	cell viability [22]	cell viability [23]	cell viability [24]	cell viability [25]	cell viability [26]	cell viability [27]	cell viability [28]	cell viability [29]	cell viability [30]	cell viability [31]	cell viability [32]	cell viability [33]
CCC(=O)N1CCN(CC1)C2=C(C=C(C=C2)N3C(=O)\C=C/C4=C3C5=CC(=CC=C5N=C4)C6=CN=C7C=CC=CC7=C6)C(F)(F)F	93.9%	94.4%	89.2%	90.8%	83.2%	75%	61.4%	71.8%	72.7%	69.2%	67%	98%	96.7%	96.9%	104%	90.4%	79%	72.7%	68.2%	62.3%	64%	63.7%	77.6%	100%	86.3%	86.5%	82.5%	77.6%	68.3%	60.8%	57.6%	57.4%	54.7%
Clc1ccc(C(c2ccc(Cl)cc2)[n+]2ccn(CC(OCc3ccc(Cl)cc3Cl)c3ccc(Cl)cc3Cl)c2)cc1 (configuration not stated)	108%	99%	113%	110%	107%	107%	115%	102%	101%	81.2%	3.86%	94.6%	100%	105%	94.7%	119%	113%	91%	103%	102%	74.3%	3.56%	105%	105%	118%	114%	112%	107%	98.5%	91.3%	90.4%	83%	2.5%
CCC(=O)O[C@@]1(CC[C@H]2[C@@H]3CCC/4=C/C(=O)CC[C@]4(C)[C@H]3CC[C@]12C)C(=O)CO	75.8%	115%	103%	111%	119%	128%	106%	140%	108%	85.4%	78.7%	109%	112%	106%	111%	107%	118%	115%	104%	104%	108%	103%	107%	103%	102%	119%	124%	122%	124%	129%	128%	86.1%	83.3%
C/C=C(\C)C(=O)N[C@@H](c1ccccc1)[C@@H](O)C(=O)O[C@H]1C[C@@]2(O)[C@@H](OC(=O)c3ccccc3)[C@@H]3[C@]4(OC(C)=O)CO[C@@H]4C[C@H](O)[C@@]3(C)C(=O)[C@H](OC(C)=O)C(=C1C)C2(C)C	25.1%	23.3%	26.8%	30.3%	29.7%	27.4%	23.4%	26.9%	24.1%	28.9%	20.7%	38.9%	13.2%	17.4%	13.8%	14.7%	14.3%	13%	15.6%	12.4%	11.3%	9.52%	47.4%	17.8%	21.3%	20.2%	17.5%	20.3%	17.2%	16.1%	19.8%	21.3%	16.6%
CC(C)[C@]12O[C@H]1[C@@H]3O[C@@]34[C@@]5(C)CC\C6=C(COC6=O)/[C@@H]5C[C@@H]7O[C@]47[C@@H]2O	118%	7.83%	7.37%	6.84%	8.16%	7.58%	7.57%	6.99%	6.9%	3.84%	2.95%	107%	6.29%	7.04%	6.27%	7.93%	7.51%	6.66%	6.58%	5%	4.13%	1.89%	106%	5.9%	5.75%	5.32%	6.01%	6.39%	5.39%	5.08%	4.8%	3.96%	2.22%
Clc1ccc(C(c2ccccc2Cl)C(Cl)Cl)cc1 (configuration not stated)	137%	124%	123%	122%	120%	107%	116%	122%	114%	99.8%	101%	105%	115%	126%	118%	137%	134%	120%	119%	110%	98.2%	93.2%	106%	115%	129%	106%	111%	109%	97.1%	120%	101%	95%	99.4%
COc1cc(N2CCC(N3CCN(C)CC3)CC2)ccc1Nc1ncc(Cl)c(Nc2ccccc2[S+](=O)([O-])C(C)C)n1	69.2%	80%	98.6%	118%	147%	124%	130%	65.1%	55.6%	38.7%	17.1%	87.2%	73.3%	125%	136%	133%	134%	130%	75.9%	64.9%	61.5%	49.6%	78.3%	66.3%	103%	113%	146%	142%	131%	84.3%	61.4%	60.4%	59.1%
CC1(C)CCC(C)(C)c2cc(NC(=O)c3ccc(C(=O)O)cc3)ccc21	91.4%	91%	98.5%	111%	101%	100%	98.1%	109%	79.9%	92.9%	60.7%	85.7%	90.6%	89.8%	97.5%	95.4%	97.3%	99.8%	101%	98.5%	94.4%	76.1%	99.8%	91.9%	91.3%	89.8%	97.7%	90.2%	95.3%	93%	88.2%	84.5%	75.9%
CC(C)C[C@H](CC(=O)O)C(=O)N[C@@H](Cc1c[nH]c2ccccc12)C(=O)N[C@@H](C)c1ccccc1	122%	114%	124%	112%	109%	123%	104%	116%	95.9%	60.9%	37.3%	91.3%	93.9%	105%	103%	109%	109%	107%	107%	105%	74.8%	29.5%	104%	115%	105%	105%	114%	114%	116%	127%	113%	113%	56.6%
COc1c(N2C[C@@H]3CCCN[C@@H]3C2)c(F)cc2c(=O)c(C(=O)O)cn(C3CC3)c12.Cl.O	118%	115%	103%	104%	100%	87.2%	82.6%	101%	92.4%	80.5%	87.5%	92.2%	94.1%	103%	105%	113%	93.8%	95%	93.7%	97.6%	85.9%	85.5%	105%	98.5%	108%	106%	99.1%	87.3%	96%	98.4%	87.4%	86.3%	85.6%
Nc1nccc(-c2ccc3noc(-c4ccc(Cl)cc4)c3c2)n1												101%	117%	103%	127%	102%	111%	115%	107%	108%	101%	104%	121%	115%	115%	120%	122%	110%	127%	106%	118%	116%	113%
C[S+](=O)([O-])N1CCN(Cc2cc3nc(-c4cccc5[nH]ncc45)nc(N4CCOCC4)c3s2)CC1												113%	133%	116%	132%	128%	133%	117%	107%	80.3%	80.6%	65.5%											
CN(C)CCc1c[nH]c2ccc(Cn3cncn3)cc12	93.7%	103%	105%	102%	115%	77.6%	86.2%	18.3%	9.15%	6.34%	3.57%	84.7%	91.7%	89.8%	87.1%	91.5%	65.3%	82.4%	17.4%	7.32%	5.18%	3.92%	94.9%	93.5%	98.1%	106%	92.8%	78.8%	86.1%	32%	10.7%	5.4%	4.44%
COCC(=O)NC/C=C/c1ccc2ncnc(Nc3ccc(Oc4ccc(C)nc4)c(C)c3)c2c1	84.6%	89.4%	109%	90.8%	92.1%	57.3%	65.8%	52.9%	37%	42.4%	34.2%	94.2%	96.4%	107%	95%	90.6%	81.3%	78%	49.7%	60.2%	50.1%	52.8%	87.7%	90.6%	93.9%	99.8%	97.4%	92.2%	78.4%	71.2%	57.6%	66.8%	41%
COCCCC/C(=N\OCCN)c1ccc(C(F)(F)F)cc1	85.7%	80.4%	79.2%	85.2%	94.8%	91.8%	78.6%	64.2%	81.3%	48.9%	3.91%	84.2%	82%	80.9%	84.5%	80.7%	79.5%	82%	83%	72.5%	72.7%	25.5%	72.7%	80.1%	83.5%	88.8%	90.1%	73.1%	75.9%	80%	77.1%	77.1%	28.7%
